Measured values as given in ChEMBL document CHEMBL4346721, “Small molecule PROTACs in targeted therapy: An emerging strategy to induce protein degradation” (Eur J Med Chem, 2019).

Experiments:
[1] = biological target: Protein cereblon/Histone acetyltransferase KAT2B (Homo sapiens, UniProt Q92831+Q96SW2); experiment: Protac activity against E3 ubiquitin ligase/PCAF in human THP-1 cells assessed as induction of PCAF protein degradation; format: cell-based
[2] = biological target: Protein cereblon/Histone acetyltransferase KAT2A (Homo sapiens, UniProt Q92830+Q96SW2); experiment: Protac activity against E3 ubiquitin ligase/GCN5 in human THP-1 cells assessed as induction of GCN5 protein degradation; format: cell-based
[3] = biological target: T1, von Hippel-Lindau disease tumor suppressor/Mitogen-activated protein kinase 14 (Homo sapiens, UniProt Q16539+P40337); experiment: Protac activity at E3 ubiquitin ligase/p38alpha (unknown origin) assessed as p38alpha degradation by cell based assay
Target sequence in this assay (Q16539 whole entry): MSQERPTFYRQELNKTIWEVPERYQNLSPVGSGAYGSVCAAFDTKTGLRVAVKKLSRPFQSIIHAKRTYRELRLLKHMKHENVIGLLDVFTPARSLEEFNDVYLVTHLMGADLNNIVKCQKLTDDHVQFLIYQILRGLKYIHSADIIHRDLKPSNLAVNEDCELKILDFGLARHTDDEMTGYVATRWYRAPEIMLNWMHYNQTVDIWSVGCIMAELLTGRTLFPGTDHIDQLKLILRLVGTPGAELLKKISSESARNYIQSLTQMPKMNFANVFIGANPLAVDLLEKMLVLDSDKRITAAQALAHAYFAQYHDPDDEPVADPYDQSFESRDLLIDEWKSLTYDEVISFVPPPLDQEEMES
Target sequence in this assay (P40337 whole entry): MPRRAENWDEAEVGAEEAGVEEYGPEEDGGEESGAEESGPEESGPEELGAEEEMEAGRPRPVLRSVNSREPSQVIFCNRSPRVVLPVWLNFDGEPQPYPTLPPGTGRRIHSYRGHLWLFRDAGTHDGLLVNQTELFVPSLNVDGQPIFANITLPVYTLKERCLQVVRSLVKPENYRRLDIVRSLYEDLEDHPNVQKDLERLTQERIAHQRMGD

[4] = biological target: T1, von Hippel-Lindau disease tumor suppressor/Mitogen-activated protein kinase 14; experiment: Protac activity at E3 ubiquitin ligase/p38alpha (unknown origin) assessed as p38alpha degradation by cell based assay relative to control
[5] = biological target: Estrogen receptor/E3 ubiquitin-protein ligase XIAP (Homo sapiens) (UniProt P03372+P98170); experiment: Protac activity against xiap/ERalpha in human MCF7 cells assessed as reduction in ERalpha protein level at 3 nM relative to control; format: cell-based; parameters: scale not given: the % may be the effect or the level left
[6] = biological target: Protein cereblon/Peptidyl-prolyl cis-trans isomerase FKBP1A (Homo sapiens, UniProt P62942+Q96SW2); experiment: Protac activity against CRBN/FKBP12 (unknown origin) assessed as FKBP12 degradation by cell based assay
[7] = biological target: T2, von Hippel-Lindau disease tumor suppressor/Androgen receptor (Homo sapiens, UniProt P10275+P40337); experiment: Protac activity against VHL/androgen receptor in human VCaP cells assessed as induction of androgen receptor protein degradation by Western blot analysis; format: cell-based
[8] = biological target: T2, von Hippel-Lindau disease tumor suppressor/Androgen receptor; experiment: Protac activity against VHL/androgen receptor in human VCaP cells assessed as induction of androgen receptor protein degradation by Western blot analysis relative to control; format: cell-based
[9] = biological target: T3, von Hippel-Lindau disease tumor suppressor/Mitogen-activated protein kinase 13 (Homo sapiens, UniProt O15264+P40337); experiment: Protac activity at E3 ubiquitin ligase/p38delta (unknown origin) assessed as p38delta degradation by cell based assay
Target sequence in this assay (O15264 whole entry): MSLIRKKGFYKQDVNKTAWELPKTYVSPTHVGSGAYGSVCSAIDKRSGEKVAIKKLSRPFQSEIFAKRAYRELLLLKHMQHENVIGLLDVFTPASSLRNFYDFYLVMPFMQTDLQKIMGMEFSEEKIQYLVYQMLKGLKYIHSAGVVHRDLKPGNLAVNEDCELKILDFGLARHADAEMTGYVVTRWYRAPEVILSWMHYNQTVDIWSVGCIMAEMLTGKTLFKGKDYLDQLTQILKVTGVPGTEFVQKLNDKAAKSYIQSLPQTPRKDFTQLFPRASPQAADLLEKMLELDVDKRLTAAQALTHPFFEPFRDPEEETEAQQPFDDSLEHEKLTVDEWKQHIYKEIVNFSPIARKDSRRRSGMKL
Target sequence in this assay (P40337 whole entry): as the sequence (P40337 whole entry) above

[10] = biological target: T3, von Hippel-Lindau disease tumor suppressor/Mitogen-activated protein kinase 13; experiment: Protac activity at E3 ubiquitin ligase/p38delta (unknown origin) assessed as p38delta degradation by cell based assay relative to control
Target sequence in this assay (O15264 whole entry, looked up): as the sequence (O15264 whole entry) above
Target sequence in this assay (P40337 whole entry, looked up): as the sequence (P40337 whole entry) above

[11] = biological target: Protein cereblon/Tyrosine-protein kinase BTK (Homo sapiens, UniProt Q06187+Q96SW2); experiment: Protac activity at E3 ubiquitin ligase/BTK in human NAMALWA cells assessed as BTK degradation; format: cell-based
[12] = biological target: von Hippel-Lindau disease tumor suppressor/Bromodomain-containing protein 4 (Homo sapiens, UniProt O60885+P40337); experiment: Protac activity against VHL/BRD4 (unknown origin) assessed as induction of BRD4 protein degradation by cell based assay
[13] = biological target: T4, von Hippel-Lindau disease tumor suppressor/Bromodomain-containing protein 2 (Homo sapiens, UniProt P25440+P40337); experiment: Protac activity against VHL/BRD2 (unknown origin) assessed as […] protein degradation by cell based assay
T4 sequence (P25440 whole entry): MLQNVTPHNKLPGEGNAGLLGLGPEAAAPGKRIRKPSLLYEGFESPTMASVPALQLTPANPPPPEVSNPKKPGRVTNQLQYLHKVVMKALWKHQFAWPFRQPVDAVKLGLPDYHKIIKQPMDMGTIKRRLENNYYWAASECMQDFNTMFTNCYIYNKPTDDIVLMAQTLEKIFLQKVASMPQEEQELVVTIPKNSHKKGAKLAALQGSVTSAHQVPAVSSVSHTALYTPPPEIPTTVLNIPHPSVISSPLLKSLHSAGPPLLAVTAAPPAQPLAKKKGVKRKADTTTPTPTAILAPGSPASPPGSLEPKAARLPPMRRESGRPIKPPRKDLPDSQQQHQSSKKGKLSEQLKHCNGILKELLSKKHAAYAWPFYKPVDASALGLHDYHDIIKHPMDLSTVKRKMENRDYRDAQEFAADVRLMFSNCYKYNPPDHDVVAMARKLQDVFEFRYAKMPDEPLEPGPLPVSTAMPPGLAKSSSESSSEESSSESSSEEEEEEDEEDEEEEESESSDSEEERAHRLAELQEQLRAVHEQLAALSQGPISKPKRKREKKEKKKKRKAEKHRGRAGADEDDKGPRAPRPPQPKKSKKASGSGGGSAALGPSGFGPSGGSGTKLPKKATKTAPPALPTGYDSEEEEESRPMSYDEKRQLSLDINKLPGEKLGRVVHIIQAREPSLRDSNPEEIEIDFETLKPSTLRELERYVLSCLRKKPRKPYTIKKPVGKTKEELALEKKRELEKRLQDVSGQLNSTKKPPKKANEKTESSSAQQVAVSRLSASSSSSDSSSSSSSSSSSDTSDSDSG
T4 sequence (P40337 whole entry): as the sequence (P40337 whole entry) above

[14] = biological target: von Hippel-Lindau disease tumor suppressor/Bromodomain-containing protein 3 (Homo sapiens, UniProt Q15059+P40337); experiment: Protac activity against VHL/BRD3 (unknown origin) assessed as […] protein degradation by cell based assay
[15] = biological target: T5, von Hippel-Lindau disease tumor suppressor/Receptor-interacting serine/threonine-protein kinase 2 (Homo sapiens, UniProt O43353+P40337); experiment: Protac activity against VHL/RIPK2 in human THP-1 cells assessed as induction of RIPK2 protein degradation at 10 nM relative to control; format: cell-based
Target sequence in this assay (O43353 whole entry, looked up): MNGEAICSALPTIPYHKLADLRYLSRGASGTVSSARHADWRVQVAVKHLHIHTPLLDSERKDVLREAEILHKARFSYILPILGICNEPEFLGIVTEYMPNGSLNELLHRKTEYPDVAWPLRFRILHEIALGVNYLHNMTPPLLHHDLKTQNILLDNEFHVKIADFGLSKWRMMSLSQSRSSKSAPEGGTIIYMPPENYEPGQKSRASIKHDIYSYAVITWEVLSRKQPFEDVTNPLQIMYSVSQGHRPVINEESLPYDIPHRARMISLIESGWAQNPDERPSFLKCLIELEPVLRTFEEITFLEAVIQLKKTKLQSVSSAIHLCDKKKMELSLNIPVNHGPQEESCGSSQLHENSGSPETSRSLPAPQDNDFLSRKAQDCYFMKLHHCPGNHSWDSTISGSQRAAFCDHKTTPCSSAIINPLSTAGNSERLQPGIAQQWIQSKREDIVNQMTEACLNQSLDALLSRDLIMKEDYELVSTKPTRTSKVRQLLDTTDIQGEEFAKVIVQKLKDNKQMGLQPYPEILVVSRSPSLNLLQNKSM
Target sequence in this assay (P40337 whole entry, looked up): as the sequence (P40337 whole entry) above

[16] = biological target: T5, von Hippel-Lindau disease tumor suppressor/Receptor-interacting serine/threonine-protein kinase 2; experiment: Protac activity against VHL/RIPK2 in human THP-1 cells assessed as induction of RIPK2 protein degradation; format: cell-based
[17] = biological target: von Hippel-Lindau disease tumor suppressor (Homo sapiens, UniProt P40337); experiment: Binding affinity to VHL in human THP-1 cells; format: cell-based
[18] = biological target: T4, von Hippel-Lindau disease tumor suppressor/Bromodomain-containing protein 2; experiment: Protac activity against VHL/BRD2 in human 22Rvl cells assessed as induction of BRD2 protein degradation by reverse phase protein array analysis; format: cell-based
[19] = biological target: von Hippel-Lindau disease tumor suppressor/Myc proto-oncogene protein (Homo sapiens, UniProt P01106+P40337); experiment: Protac activity against VHL/c-Myc (unknown origin) assessed as induction of c-Myc protein degradation by cell based reverse phase protein array analysis
[20] = biological target: Protein cereblon/Cyclin-dependent kinase 9 (Homo sapiens, UniProt P50750+Q96SW2); experiment: Protac activity against E3 ubiquitin ligase/CDK9 in human MCF7 cells assessed as induction of CDK9 protein degradation; format: cell-based

Sequence of Protein cereblon/Histone acetyltransferase KAT2B (Q92831 whole entry): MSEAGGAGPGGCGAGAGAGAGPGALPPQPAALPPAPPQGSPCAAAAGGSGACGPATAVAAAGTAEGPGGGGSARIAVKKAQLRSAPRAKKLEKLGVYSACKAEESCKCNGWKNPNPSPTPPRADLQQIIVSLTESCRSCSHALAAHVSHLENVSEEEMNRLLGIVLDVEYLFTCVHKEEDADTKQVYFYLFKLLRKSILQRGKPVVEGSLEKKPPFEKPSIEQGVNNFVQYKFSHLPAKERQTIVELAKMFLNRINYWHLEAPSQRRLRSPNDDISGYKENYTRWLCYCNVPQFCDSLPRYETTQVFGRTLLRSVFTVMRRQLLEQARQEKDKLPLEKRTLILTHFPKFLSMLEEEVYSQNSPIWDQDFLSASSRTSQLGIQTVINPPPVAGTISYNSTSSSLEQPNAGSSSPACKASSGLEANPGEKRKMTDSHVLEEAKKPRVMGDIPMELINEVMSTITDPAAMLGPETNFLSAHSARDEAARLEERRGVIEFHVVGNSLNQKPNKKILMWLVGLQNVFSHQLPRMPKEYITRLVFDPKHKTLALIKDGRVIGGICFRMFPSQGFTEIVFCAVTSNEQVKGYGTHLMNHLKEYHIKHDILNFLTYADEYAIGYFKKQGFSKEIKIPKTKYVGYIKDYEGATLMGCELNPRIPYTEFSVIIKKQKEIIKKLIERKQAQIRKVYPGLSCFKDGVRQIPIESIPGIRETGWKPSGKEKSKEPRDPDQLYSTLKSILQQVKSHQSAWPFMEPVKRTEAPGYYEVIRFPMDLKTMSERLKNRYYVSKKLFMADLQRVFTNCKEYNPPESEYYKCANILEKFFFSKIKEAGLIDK
Sequence of Protein cereblon/Histone acetyltransferase KAT2B (Q96SW2 whole entry): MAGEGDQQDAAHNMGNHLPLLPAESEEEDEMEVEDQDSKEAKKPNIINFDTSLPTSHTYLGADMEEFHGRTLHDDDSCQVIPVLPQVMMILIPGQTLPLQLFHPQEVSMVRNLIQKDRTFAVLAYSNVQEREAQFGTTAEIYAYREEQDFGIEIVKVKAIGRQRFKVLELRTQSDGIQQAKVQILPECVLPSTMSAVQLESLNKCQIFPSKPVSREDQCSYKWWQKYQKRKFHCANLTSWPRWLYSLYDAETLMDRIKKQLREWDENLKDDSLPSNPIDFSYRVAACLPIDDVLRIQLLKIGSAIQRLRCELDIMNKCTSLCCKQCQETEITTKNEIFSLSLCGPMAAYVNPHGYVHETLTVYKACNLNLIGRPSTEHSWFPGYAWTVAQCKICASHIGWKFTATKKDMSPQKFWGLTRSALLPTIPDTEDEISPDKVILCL

**Q.** With CN1C[C@H](Nc2cnn(C)c(=O)c2Br)C[C@H](c2ccc(C(=O)N(C)CCCN(C)c3ccc(CCCOc4cccc5c4C(=O)N(C4CCC(=O)NC4=O)C5=O)cc3)cc2)C1 (mixture of isomers) as the compound, how does the DC50 [1] read?
**A.** 1.5 nM

**Q.** What about the DC50 [2] of the same compound?
**A.** 3 nM

**Q.** Which results are given for COc1cc2c(Oc3ccc(NC(=O)C4(C(=O)Nc5ccc(F)cc5)CC4)cc3F)ccnc2cc1OCCCCOCCCCOCC(=O)N[C@H](C(=O)N1C[C@H](O)C[C@H]1C(=O)NCc1ccc(-c2scnc2C)cc1)C(C)(C)C?
**A.** DC50 [3]: 7.16 nM; Emax [4]: 97.4%

**Q.** With CC/C(=C(\c1ccc(O)cc1)c1ccc(OCCN(C)C(=O)COCCOCCOCCOc2cccc(C(=O)c3csc([C@@H]4CCCN4C(=O)[C@@H](NC(=O)[C@H](C)NC)C4CCCCC4)n3)c2)cc1)c1ccccc1 as the compound, how does the Activity [5] read?
**A.** 50%

**Q.** Which DC50 [6] does the source give for CCC(C)(C)C(=O)C(=O)N1CCCCC1C(=O)O[C@H](CCc1ccc(OC)c(OC)c1)c1cccc(NC(=O)CCC(=O)NCCCCNC(=O)COc2cccc3c2C(=O)N(C2CCC(=O)NC2=O)C3=O)c1 (stereo not given in full) here?
**A.** 10 nM

**Q.** Cc1ncsc1-c1ccc(CNC(=O)[C@@H]2C[C@@H](O)CN2C(=O)[C@@H](NC(=O)COCCCCOc2ccc(-c3ccc(N4C(=S)N(c5ccc(C#N)c(C(F)(F)F)c5)C(=O)C4(C)C)cc3)cc2)C(C)(C)C)cc1 was tested. Which DC50 [7] did it give?
**A.** 5 nM

**Q.** And the Emax [8]?
**A.** > 95%

**Q.** For COc1cc2c(Oc3ccc(NC(=O)C4(C(=O)Nc5ccc(F)cc5)CC4)cc3F)ccnc2cc1OCCOCCOCCOc1cc(-c2scnc2C)ccc1CNC(=O)[C@@H]1C[C@@H](O)CN1C(=O)[C@H](C(C)C)N1Cc2ccccc2C1=O, which DC50 [9] is on record?
**A.** 46.2 nM

**Q.** And the Emax [10]?
**A.** 99.4%

**Q.** Nc1ncnc2c1c(-c1ccc(Oc3ccccc3)cc1)nn2C1CCN(CCOCCOCC(=O)Nc2ccc3c(c2)C(=O)N(C2CCC(=O)NC2=O)C3=O)CC1 (stereo not given) was tested. Which DC50 [11] did it give?
**A.** 9.1 nM

**Q.** How did the DC50 [12] turn out when Cc1ncsc1-c1ccc(CNC(=O)[C@@H]2[C@@H](F)[C@@H](O)CN2C(=O)[C@@H](NC(=O)COCCOCCOCCNC(=O)C[C@@H]2N=C(c3ccc(Cl)cc3)c3c(sc(C)c3C)-n3c(C)nnc32)C(C)(C)C)cc1 was run?
**A.** < 3 nM

**Q.** What about the DC50 [13] of the same compound?
**A.** 10 nM

**Q.** And the DC50 [14]?
**A.** 10 nM

**Q.** How did the Emax [15] turn out when Cc1ncsc1-c1ccc(CNC(=O)[C@@H]2C[C@@H](O)CN2C(=O)[C@@H](NC(=O)COCCOCCOCCOCCOc2cc3nccc(Nc4ccc5scnc5c4)c3cc2S(=O)(=O)C(C)(C)C)C(C)(C)C)cc1 was run?
**A.** > 95%

**Q.** What about the DC50 [16] of the same compound?
**A.** 1.4 nM

**Q.** What about the IC50 [17] of the same compound?
**A.** 656 nM

**Q.** What does the source list for Cc1ncsc1-c1ccc([C@H](C)NC(=O)[C@@H]2C[C@@H](O)CN2C(=O)[C@@H](NC(=O)COCCCOCCNC(=O)C[C@@H]2N=C(c3ccc(Cl)cc3)c3c(sc(C)c3C)-n3c(C)nnc32)C(C)(C)C)cc1?
**A.** DC50 [18]: < 5 nM; DC50 [19]: < 1 nM

**Q.** How did the IC50 [20] turn out when O=C1CCC(N2C(=O)c3cccc(NC(=O)CCCCCCCn4cc(COc5c(O)cc(O)c6c(=O)cc(-c7ccccc7)oc56)nn4)c3C2=O)C(=O)N1 (stereo not given) was run?
**A.** 523 nM
